US20240269128A1, “COMPOUNDS FOR TREATING OR PREVENTING ALZHEIMER'S DISEASE” (THE UNITED STATES OF AMERICA, as represented by the …, priority 2021, published 2024)

Assays:
[1] = test system: murine microglial cell line BV-2; experiment: LPS-induced neuroinflammation in BV-2 microglial cells (cytokines by MSD V-PLEX, MTT); type: cell-based, mouse
Description: Lipopolysaccharide (LPS)-Induced Neuroinflammation: The murine microglial cell line BV-2 was cultivated in DMEM medium supplemented with 10% FCS, 1% penicillin/streptomycin and 2 mM L-glutamine (culture medium). For LPS stimulation assay, 5000 BV-2 cells per well (uncoated 96 well plates) were plated out and the medium was changed to treatment medium (DMEM, 5% FCS, 2 mM L-glutamine). After changing cells to treatment medium, drug compounds were administered 1 hour before LPS stimulation (Sigma-Aldrich; L6529; 1 mg/ml stock in ddH2O, final concentration in well: 100 ng/ml (dilutions in medium)). Cells treated with vehicle, cells treated with LPS alone, as well as cells treated with LPS plus reference item (dexamethasone 10 μM, Sigma D4902) served as controls. After 24 h of stimulation, cell supernatants were collected for the cytokine measurement (V-PLEX Proinflammatory Panel 1 Mouse Kit, K15048D, Mesoscale) and cells were subjected to MTT assay.
MTT Assay: MTT solution was added to each well in a final concentration of 0.5 mg/mL. After 2 h, the MTT containing medium was aspirated. Cells were lysed in 3% SDS and the formazan crystals were dissolved in isopropanol/HCl. Optical density was measured with a Cytation 5 (Biotek) multimode reader at wavelength 570 nm. Values were calculated as percent of control values (vehicle control or lesion control).
After changing cells to treatment medium, HCQ (0.25 μM, 2.5 μM and 25 μM) was applied 1 hour before LPS stimulation (Sigma-Aldrich; L6529; 1 mg/ml stock in ddH2O, final concentration in well: 100 ng/ml (dilutions in medium)).

[2] = test system: SH-SY5Y-hTau441(V337M/R406W) cells; experiment: Tau phosphorylation assay (Phospho(Thr231)/Total Tau); type: cell-based, human
Description: Tau Phosphorylation: SH-SY5Y-hTau441(V337M/R406W) cells were maintained in culture medium (DMEM medium, 10% FCS, 1% NEAA, 1% L-Glutamine, 100 g/mL Gentamycin, 300 μg/mL Geneticin G-418) and differentiated with 10 μM retinoic acid (RA) for 5 days changing medium every 2 to 3 days. Prior to the treatment, cells were seeded onto 24-well plates at a cell density of 2×10^5 cells per well (DIV1). Drug compounds were applied on DIV2. After 24 h of incubation (DIV3), cells on 24-well plates were harvested in 60 μL RIPA-Buffer [50 mM Tris pH 7.4, 1% Nonidet P40, 0.25% Na-deoxy-cholate, 150 mM NaCl, 1 mM EDTA supplemented with freshly added 1 μM NaF, 0.2 mM Na-ortho-vanadate, 80 μM Glycerophosphate, protease (Calbiochem) and phosphatase (Sigma) inhibitor cocktail]. Protein concentration was determined by BCA assay (Pierce, ThermoFisher) and samples were adjusted to a uniform total protein concentration. Total Tau and phosphorylated Tau were determined by immunosorbent assay from Mesoscale Discovery (Phospho(Thr231)/Total Tau Kit K15121D, Mesoscale Discovery).
Tau phosphorylation: SH-SY5Y-hTau441(V337M/R406W) cells were maintained in culture medium (DMEM medium, 10% FCS, 1% NEAA, 1% L-Glutamine, 100 μg/mL Gentamycin, 300 μg/mL Geneticin G-418) and differentiated with 10 μM retinoic acid (RA) for 5 days changing medium every 2 to 3 days. Prior to the treatment, cells were seeded onto 24-well plates at a cell density of 2×10^5 cells per well (DIV1). HCQ (25 μM) was applied on DIV2. After 24 h of incubation (DIV3), cells on 24-well plates were harvested in 60 μL RIPA-Buffer [50 mM Tris pH 7.4, 1% Nonidet P40, 0.25% Na-deoxy-cholate, 150 mM NaCl, 1 mM EDTA supplemented with freshly added 1 μM NaF, 0.2 mM Na-ortho-vanadate, 80 μM Glycerophosphate, protease (Calbiochem) and phosphatase (Sigma) inhibitor cocktail]. Protein concentration was determined by BCA assay (Pierce, ThermoFisher) and samples were adjusted to a uniform total protein concentration. Total Tau and phosphorylated Tau were determined by immunosorbent assay from Mesoscale Discovery (Phospho(Thr231)/Total Tau Kit K15121D, Mesoscale Discovery).
Tau Phosphorylation: SH-SY5Y-hTau441(V337M/R406W) cells were maintained in culture medium [DMEM medium, 10% FCS, 1% nonessential amino acids (NEAA), 1% l-glutamine, gentamycin (100 μg/ml), and geneticin G-418 (300 μg/ml)] and differentiated with 10 μM retinoic acid for 5 days changing medium every 2 to 3 days. […] Protein concentration was determined by BCA assay (Pierce, Thermo Fisher Scientific, Waltham, MA), and samples were adjusted to a uniform total protein concentration. Total tau and phosphorylated tau were determined by immunosorbent assay from Mesoscale Discovery [Phospho(Thr231)/Total Tau Kit K15121D, Mesoscale Discovery, Meso Scale Diagnostics]. […]

H4-hAPP cells = experiment: Aβ secretion assay; type: cell-based, human
Description: (§1) Aβ Secretion: H4-hAPP cells were cultivated in Opti-MEM supplemented with 10% FCS, 1% penicillin/streptomycin 200 μg/mL Hygromycin B and 2.5 μg/mL Blasticidin S. H4-hAPP cells were seeded into 96 well plates (2×10^4 cells per well). On the next day, cells in 96 well plates were treated with compounds, R.I. (DAPT 400 nM) or vehicle. 24 h later, supernatants were collected for further Aβ measurements by MSD® (V-PLEX Aβ Peptide Panel 1 (6E10) Kit, K15200E, Mesoscale Discovery).
as §1, with “secretion: Human APP overexpressing” for “Secretion:”, “HCQ (0.25 μM, 2.5 μM and 25 μM) or the reference item” for “with compounds, R.I.”, “nM), a γ-secretase inhibitor” for “nM) or”
(§2) Cultivation and treatment of H4-hAPP cells: H4-hAPP cells were thawed and cultivated in Opti-MEM supplemented with 10% FCS, 1% penicillin/streptomycin 200 μg/ml Hygromycin B and 2.5 μg/ml Blasticidin S (=culture medium). H4-hAPP cells were seeded into 96 well plates (2×10^4 cells per well). On the next day, cells in 96 well plates were treated with TUDCA (100 μM (C1), 10 μM (C2), or 1.0 μM (C3)), R.I. (DAPT 400 nM) or vehicle. Alternatively, cells in 96 well plates were treated with 25 μM HCQ/0.1 μM TUDCA (C1), 2.5 μM HCQ/100 μM TUDCA (C2), and 2.5 μM HCQ/10 μM TUDCA (C3). 24 h later, supernatants were collected for further Aβ measurements by MSD. The experiment was performed in n=6 technical replicates for all groups.
(§3) Aβ38, 40, 42 measurement: Supernatants were diluted 1:10 and analyzed for human Aβ38, 40, and 42 with MSD® 96-well MULTI-SPOT® 6E10 Abeta Triplex Assay (Mesoscale Discovery, Rockville, MD). The immune assay was carried out according to the manual and plates are read on the MESO QuickPlex SQ 120 multiplexing instrument. Analyte levels were evaluated according to adequate Aβ peptide standards (MSD) as pg per mL.
Aβ Secretion: H4-hAPP cells were cultivated in Opti-MEM supplemented with 10% FCS, 1% penicillin/streptomycin, hygromycin B (200 μg/ml), and blasticidin S (2.5 μg/ml). H4-hAPP cells were seeded into 96-well plates (2×10^4 cells per well). On the next day, cells in 96-well plates were treated with compounds, reference item [400 nM N-[N-(3,5-difluorophenacetyl-1-alanyl)]-S-phenylglycine t-butyl ester (DAPT)], or vehicle. Twenty-four hours later, supernatants were collected for further Aβ measurements by MSD [V-PLEX Aβ Peptide Panel 1 (6E10) Kit, K15200E, Mesoscale Discovery].
as §2, with “Culture” for “Cultivation”, “T.I.,” for “TUDCA (100 μM (C1), 10 μM (C2), or 1.0 μM (C3)),”, “vehicle.” for “vehicle. Alternatively, cells in 96 well plates were treated with 25 μM HCQ/0.1 μM TUDCA (C1), 2.5 μM HCQ/100 μM TUDCA (C2), and 2.5 μM HCQ/10 μM TUDCA (C3).”
as §3, with “measurement in H4-hAPP cells:” for “measurement:”, “Discovery).” for “Discovery, Rockville, MD).”, “were” for “are”, “120.” for “120 multiplexing instrument.”

BV-2 cells = experiment: Aβ1-42 clearance assay; type: cell-based, mouse; settings: posterior probability of a protective effect, Bayesian dose-response model
Description: AB Clearance: For the amyloid beta (Aβ) clearance assay, 20000 BV-2 cells per well (uncoated 96 well plates) were plated out. After changing cells to treatment medium, drug compounds were administered 1 hour before Aβ stimulation (Bachem 4061966; final concentration in well: 200 ng/ml (dilutions in medium)). Cells treated with vehicle and cells treated with Aβ alone served as controls. After 3 h of Aβ stimulation, cell supernatants were collected for the Aβ measurement and cells were carefully washed twice with PBS and thereafter lysed in 35 μL cell lysis buffer (50 mM Tris-HCl, pH 7.4, 150 mM NaCl, 5 mM EDTA, 1% SDS) supplemented with protease inhibitors. Supernatants and cell lysates were analyzed for human Aβ42 with MSD® V-PLEX Human Aβ42 Peptide (6E10) Kit (K151LBE, Mesoscale Discovery). The immune assay was carried out according to the manual and plates were read on the MESO QuickPlex SQ 120.
Aβ1-42 clearance: For Abeta (Aβ1-42) clearance assay, 20,000 BV-2 cells per well (uncoated 96 well plates) were plated out. After changing cells to treatment medium, HCQ (0.25 μM, 2.5 μM and 25 μM) was applied 1 hour before Aβ1-42 stimulation (Bachem 4061966; final concentration in well: 200 ng/ml (dilutions in medium)). Cells treated with vehicle (0.1% DMSO) and cells treated with Aβ1-42 alone served as controls. After 3 h of Aβ1-42 stimulation, cell supernatants were collected for the Aβ1-42 measurement and cells were carefully washed twice with PBS and thereafter lysed in 35 μL cell lysis buffer (50 mM Tris-HCl, pH 7.4, 150 mM NaCl, 5 mM EDTA, 1% SDS) supplemented with protease inhibitors. Supernatants and cell lysates were analyzed for human Aβ1-42 with MSD® V-PLEX Human Aβ42 Peptide (6E10) Kit (K151LBE, Mesoscale Discovery). The immune assay was carried out according to the manufacturer's manual and plates were read on the MESO QuickPlex SQ 120.
Aβ Clearance: 20,000 BV2 cells per well (uncoated 96-well plates were plated out. After changing cells to treatment medium, drug compounds were administered 1 hour before Aβ stimulation (final concentration in well 200 ng/ml; dilutions in medium). Cells treated with vehicle and cells treated with Aβ alone served as controls. After 3 hours of Aβ stimulation, cell supernatants were collected for the Aβ measurement and cells were carefully washed twice with PBS and thereafter lysed in 35 μl of cell lysis buffer (50 mM tris-HCl, pH 7.4, 150 mM NaCl, 5 mM EDTA, and 1% SDS) supplemented with protease inhibitors. Supernatants and cell lysates were analyzed for human Aβ42 with the MSD V-PLEX Human Aβ42 Peptide (6E10) Kit (K151LBE, Mesoscale Discovery). The immune assay was carried out according to the manual, and plates were read on MESO QuickPlex SQ 120 (Meso Scale Diagnostics, Rockville, MD).
For Aβ clearance assay, 20,000 BV-2 cells per well (uncoated 96 well plates) were plated out. After 24 hours, medium was changed to treatment medium (DMEM, 5% FCS, 2 mM L-glutamine) and cells were maintained in treatment medium for the remaining culture period. After changing cells to treatment medium, the test items were administered 1 hour before Aβ stimulation (Bachem 4061966; final concentration in well: 200 ng/mL (dilutions in medium)). Cells treated with vehicle, cells treated with Aβ alone, as well as wells with Aβ but no cells served as controls. All wells were handled the same way. After 3 h of Aβ stimulation, cell supernatants were collected for the Aβ measurement and cells were carefully washed twice with PBS and thereafter lysed in 35 μl cell lysis buffer (50 mM Tris-HCl, pH 7.4, 150 mM NaCl, 5 mM EDTA, 1% SDS) supplemented with protease inhibitors. Cells were incubated for 15 min at RT on a plate shaker, samples were frozen at −80° C. until further use. The experiment was performed in n=6 technical replicates for all groups. […]

[3] = test system: hippocampal CA1 synapses of APP/PS1 mice; experiment: Late long-term potentiation, field recordings in hippocampal slices; parameters: species or system mouse; settings: for S1 fEPSP slope at the end of the experiment / potentiation of S1 fEPSP slope after STET: APP/PS1 slices
iPSCs = experiment: LPS induced neuroinflammation (iPSCs); type: cell-based; settings: posterior probability of a protective effect
Description: Cell-based assays: For each combination of drugs and assay, the posterior probability P(Hi|data) of protective, neutral, and adverse drug effect (formal hypotheses H1, H0, H2, respectively) were evaluated. Dose-response relationships (x-y data) were modeled with a Bayesian nonlinear regression model:
and Bayesian estimation of the posterior density of the fold change was performed using default settings of the Markov chain Monte Carlo samples implemented by the PyMC python library. For efficient sample, each bioactivity data set was standardized such that […] corresponded to one standard deviation. Diagnostic criteria (posterior sample of fitted curves, effective sample sizes, values of the r statistic, and Markov chain standard errors) were inspected for the fit and three poorly fitted data sets out of a total of 91 data sets were excluded.

[4] = test system: hippocampal neuronal cells; settings: Lee et al. 2019; cited from earlier work
[5] = test system: hippocampal cell cultures; settings: Rzemieniec et al. 2019; cited from earlier work

COc1ccc(S(=O)(=O)Nc2cc(-c3c(O)ccc4ccccc34)c(O)c3ccccc23)cc1 [C188-9, N-[4-hydroxy-3-(2-hydroxynaphthalen-1-yl)naphthalen-1-yl]-4-methoxybenzenesulfonamide]
release of IL-1β ([1]; 0.3 μM and 0.6 μM, relative to LPS): significantly reduced | release of IL-6 ([1]; 0.6 μM, 24 h LPS stimulation, relative to LPS): significantly reduced | cell viability ([1]; C188-9 in LPS assay, results not shown): no adverse effects on cell viability | phosphorylated tau 231 (ptau) ([2]; 10 μM, 24 h, relative to VC): significantly reduced | Aβ42: Aβ40 ratio (H4-hAPP cells; 1 μM, relative to VC): significantly reduced | endogenous Aβ1-42 (H4-hAPP cells; 1 μM, relative to VC): significantly reduced | cell viability (H4-hAPP cells; C188-9 in Aβ secretion assay, results not shown): no adverse effects on cell viability

C[C@H](NC(=O)Cc1cc(F)cc(F)c1)C(=O)N[C@H](C(=O)OC(C)(C)C)c1ccccc1 [DAPT, N-[N-(3,5-difluorophenacetyl-1-alanyl)]-S-phenylglycine t-butyl ester]
Aβ species (Aβ1-38, 1-40 and 1-42) in supernatant (H4-hAPP cells; reference item, 400 nM, 24 h): significantly reduced all tested species

c1ccc2c(Cc3c[nH]c4ccccc34)c[nH]c2c1 [DIM, 3,3′-diindolylmethane]
effect in LPS induced neuroinflammation (BV2 cells) ([1]; posterior probability of a protective effect): protective | effect in Aβ clearance (BV2 cells) (BV-2 cells): strongly protective | LTP in APP/PS1 slices ([3]; 10 μM DIM, acute application): rescues LTP | late LTP in APP/PS1 slices ([3]; 3-hour pre-incubation with 10 μM DIM): no longer results in rescue | effect in LPS induced neuroinflammation (iPSCs) (iPSCs): strongly protective | oxidative stress-induced apoptosis [4]: inhibit | ischemia-induced apoptosis and autophagy [5]: protect

Cc1c[nH]c(-c2cnc(NCCNc3ccc(C#N)cn3)nc2-c2ccc(Cl)cc2Cl)n1 [CHIR]
phosphorylated Tau ([2]; reference item, compared to vehicle control): significantly reduced

CCN(CCO)CCCC(C)Nc1ccnc2cc(Cl)ccc12 (racemic) [HCQ racemic free base]
late-LTP in APP/PS1 mice ([3]; 25 μM HCQ racemic free base): partial rescue | late-LTP in APP/PS1 mice ([3]; 50 μM HCQ racemic free base): diminished initial potentiation which did not last | late LTP in age-matched WT mice ([3]; 50 μM HCQ racemic free base, preliminary (n=1)): partially impaired | S1 fEPSP slope at the end of the experiment ([3]; 25 μM HCQ racemic free base): 118.003±7.753% | potentiation of S1 fEPSP slope after STET ([3]; 25 μM HCQ racemic free base): 155.545±12.309% | S1 fEPSP slope at the end of the experiment ([3]; 50 μM HCQ racemic free base): 119.117±8.167% | potentiation of S1 fEPSP slope after STET ([3]; 50 μM HCQ racemic free base): 128.809±8.116%
